Entries after “also recorded” stand apart in the source; their conditions may differ. Like-named read-outs stand apart in the source and are kept apart here.
Columns and labels:
THP-1 = experiment: Cell Titer Glo cell viability assay, 48 h; assay type: cell-based, human; details: read-out: IC50 of inhibitors on cell lines, m (mean)
Procedure: (§1) The activity of the kinase inhibitor collection against a panel of human leukemia cell lines was determined in cell viability assays run over 48 h using the Cell Titer Glo reagent.
(§2) Figure 1 Effects of kinase inhibition on the proliferation of leukemia cells A. Human leukemia cell lines were treated with duplicate serial dilutions of kinase inhibitors and the effect on cell viability was determined by Cell Titer Glo assay after 48 hours. […] HL-60 cells were treated with serial dilutions of mTor/PI3K B. and MEK C. inhibitors and the effect on cell viability was determined after 48 hours. Data shown is the mean ± SEM of 3 independent experiments.
(§3) Leukemia and lymphoma cell lines were grown in RPMI containing 10% FCS. […] Cell lines are routinely tested for mycoplasma and genotyped by short tandem repeating (STR) profiling to confirm identity.
(§4) Compounds were obtained from SynMedChem and dissolved at […] in DMSO. Serial 2-fold dilutions of each compound were prepared in DMSO using a liquid handling robot (Janus, Perkin Elmer). Each dilution (100nL) was transferred to duplicate tissue culture plates containing 50 μL of media containing 5 × 10^3 cells using a 384 well pin tool. Cells were incubated for 48 h and cell viability was determined using Cell Titer Glow reagents as described by the manufacturer (Promega). Data was acquired using a luminescent plate reader (Envision, Perkin Elmer) and analysed using Activity Base (IDBS, Guilford, UK) and visualised using Spotfire (TIBCO, Palo Alto, CA) as described previously. Each cell line was assayed in independent experiments on at least two occasions. […] Serial 2-fold dilutions of each compound were prepared in media containing 0.2% DMSO and 50 μl of each dilution was added to 10^4 cells in 50 μl of media. Cells were incubated for 48 h and cell viability was determined using Cell Titer Glow assay as described above.

OCI-AML3 = experiment: Cell Titer Glo cell viability assay, 48 h; assay type: cell-based, human; details: read-out: IC50 of inhibitors on cell lines, m (mean)
Procedure: as §1, §2, §3, §4

KU-812 = experiment: Cell Titer Glo cell viability assay, 48 h; assay type: cell-based, human; details: read-out: IC50 of inhibitors on cell lines, m (mean)
Procedure: as §1, §2, §3, §4

HL-60 = experiment: Cell Titer Glo cell viability assay, 48 h; assay type: cell-based, human; details: read-out: IC50 of inhibitors on cell lines, m (mean)
Procedure: as §1, §2, §3, §4

MOLT4 = experiment: Cell Titer Glo cell viability assay, 48 h; assay type: cell-based, human; details: read-out: IC50 of inhibitors on cell lines, m (mean)
Procedure: as §1, §2, §3, §4

U937 = experiment: Cell Titer Glo cell viability assay, 48 h; assay type: cell-based, human; details: read-out: IC50 of inhibitors on cell lines, m (mean)
Procedure: as §1, §2, §3, §4

EOL-1 = experiment: Cell Titer Glo cell viability assay, 48 h; assay type: cell-based, human; details: read-out: IC50 of inhibitors on cell lines, m (mean)
Procedure: as §1, §2, §3, §4

MV4;11 = experiment: Cell Titer Glo cell viability assay, 48 h; assay type: cell-based, human; details: read-out: IC50 of inhibitors on cell lines, m (mean)
Procedure: as §1, §2, §3, §4

K562 = experiment: Cell Titer Glo cell viability assay, 48 h; assay type: cell-based, human; details: read-out: IC50 of inhibitors on cell lines, m (mean)
Procedure: as §1, §2, §3, §4

JURKAT = experiment: Cell Titer Glo cell viability assay, 48 h; assay type: cell-based, human; details: read-out: IC50 of inhibitors on cell lines, m (mean)
Procedure: as §1, §2, §3, §4

HEL.92.1.7 = experiment: Cell Titer Glo cell viability assay, 48 h; assay type: cell-based, human; details: read-out: IC50 of inhibitors on cell lines, m (mean)
Procedure: as §1, §2, §3, §4

MEG-01 = experiment: Cell Titer Glo cell viability assay, 48 h; assay type: cell-based, human; details: read-out: IC50 of inhibitors on cell lines, m (mean)
Procedure: as §1, §2, §3, §4

[1] = system: primary murine bone-marrow neutrophils; experiment: Live cell imaging viability of primary bone-marrow neutrophils; details: for effect on mouse neutrophil viability (words): G-CSF- or GM-CSF-primed, inhibitors at 1 μM, over 24 hours
Source text: Using a high-throughput live cell imaging approach reported previously [15], we examined the effect of the kinase inhibitors on the viability of bone marrow neutrophils to determine their potential to cause neutropenia (Figure 2). Because G-CSF and GM-CSF are dominant regulators of granulopoiesis and neutrophil survival, and are commonly used in a clinical setting to mobilize hematopoietic stem cells into the blood and increase neutrophil production [27–31], we treated cells with these cytokines immediately prior to drug exposure. The addition of either cytokine prevents constitutive neutrophil apoptosis thereby increasing the window for detection of changes in viability induced by drug treatments.
For all above, data represent mean ± SEM from three independent samples.
Mouse bone marrow neutrophils were prepared as described [15]. Neutrophils were resuspended in phenol red-free DMEM/10% FBS for imaging studies. The purity of neutrophil preparations was routinely 96% ± 4% (Mean ± SD, n = 50) as assessed by cytology following May-Grünwald/Giemsa staining.
Kinase inhibitors were purchased from SYN kinase (Melbourne, Australia) and were used at 1 μM, unless otherwise specified, with dilutions performed in assay buffer containing 0.1% DMSO.
Viability was monitored using 2 μg/mL PI (Sigma). Images were captured every 30-60 min by the Zeiss Axiovert 200M Microscope at 37 °C/10% CO2. Quantitative analysis was performed using a custom-scripted MetaMorph (Molecular Devices) journal suite incorporating the count nuclei function, reconstruction & subtraction functions and Integrated Morphometry Analysis to select and analyze cells of interest.

[2] = 48 h, mean of 2 independent experiments, 0 = less than 10 nM, cell line not given
[3] = Homo sapiens, 48 h, mean of 2 independent experiments, 0 = less than 10 nM, cell line not given
[4] = Homo sapiens, OCI-AML-3, 48 h, mean of 2 independent experiments, 0 = less than 10 nM, cell line not given
[5] = Homo sapiens, KU812, 48 h, mean of 2 independent experiments, 0 = less than 10 nM, cell line not given
[6] = Homo sapiens, MOLT-4, 48 h, mean of 2 independent experiments, 0 = less than 10 nM, cell line not given
[7] = Homo sapiens, U-937, 48 h, mean of 2 independent experiments, 0 = less than 10 nM, cell line not given
[8] = Homo sapiens, EOL1, 48 h, mean of 2 independent experiments, 0 = less than 10 nM, cell line not given

Row | IC50 (THP-1; [2]) [µM] | IC50 (OCI-AML3; [2]) [µM] | IC50 (HL-60; [2]) [µM] | IC50 (MOLT4; [2]) [µM] | IC50 (U937; [2]) [µM] | IC50 (MV4;11; [2]) [µM] | IC50 (K562; [2]) [µM] | IC50 (JURKAT; [2]) [µM] | Structure (SMILES) | IC50 (KU-812; [2]) [µM] | IC50 (EOL-1; [2]) [µM] | IC50 (HEL.92.1.7; [2]) [µM] | IC50 (MEG-01; [2]) [µM] | also measured
1 | 8.78 | 3.88 | 4.82 | 6.99 | 2.39 | 7.33 | 9.65 | 3.94 | Nc1ccc(C(=O)Nc2cccc(-c3nc(N4CCOCC4)c4oc5ncccc5c4n3)c2)cn1 [YM201636] | 4.28 | 5.88 | 7.14 | 9.12 | –
2 | – | – | – | – | – | – | – | – | O=C(Nc1cccc(Cl)c1)Nc1ncc(CCNc2ncnc3ccsc23)s1 [SNS-314] | – | – | – | – | IC50 (THP-1; [3]): 7.37 µM; IC50 (OCI-AML3; [4]): > 10 µM; IC50 (KU-812; [5]): 0.83 µM; IC50 (HL-60; [3]): 6.62 µM; IC50 (MOLT4; [6]): 3.58 µM; IC50 (U937; [7]): 5.04 µM; IC50 (EOL-1; [8]): 0.02 µM; IC50 (MV4;11; [3]): 0.01 µM; IC50 (K562; [3]): 9.11 µM; IC50 (JURKAT; [3]): 9.01 µM; IC50 (HEL.92.1.7; [3]): > 10 µM; IC50 (MEG-01; [3]): 8.15 µM
3 | > 10 | 9.72 | > 10 | > 10 | 9.85 | 0.65 | 9.16 | 9.84 | Cc1cc(C(C)Nc2ccccc2)c2nc(N3CCOCC3)cc(=O)n2c1 (stereo not shown) [TGX221] | > 10 | 0.43 | > 10 | > 10 | –
4 | > 10 | > 10 | > 10 | > 10 | 9.64 | 7.22 | 7.75 | > 10 | CC1=C(C(=O)Nc2cc3cn[nH]c3cc2F)C(c2ccc(C(F)(F)F)cc2)CC(=O)N1 (stereo not shown) [RHO-15] | 2.11 | 0.19 | > 10 | 5.14 | –
5 | 5.41 | 0.82 | 2.24 | 3.92 | 2.32 | 6.41 | > 10 | 9.47 | COc1ccc2c(c1OC)N=C(NC(=O)c1cccnc1)N1CCN=C21 [PIK-90] | > 10 | 5.09 | > 10 | > 10 | –
6 | – | – | – | – | – | – | – | – | CN1CC[C@H](c2c(O)cc(O)c3c(=O)cc(-c4ccccc4Cl)oc23)[C@H](O)C1 [Flavopiridol] | – | – | – | – | effect on mouse neutrophil viability (words) [1]: induced rapid cell death; effect on mouse neutrophil viability (words) ([1]; listed as flavopiridol): significant impact on neutrophil viability
7 | > 10 | > 10 | > 10 | > 10 | > 10 | 9.71 | 2.74 | > 10 | O=C1NC(=O)/C(=C/c2cccc(C(F)(F)F)c2)S1 [SMI-4a] | 4.54 | 0.13 | > 10 | 5.78 | –
8 | > 10 | > 10 | > 10 | > 10 | > 10 | > 10 | > 10 | > 10 | NC(=O)c1ccc2[nH]ccc2c1 [SD169] | > 10 | 5.12 | > 10 | > 10 | –
9 | – | – | – | – | – | – | – | – | CN(C)CC[C@H](CSc1ccccc1)Nc1ccc(S(=O)(=O)NC(=O)c2ccc(N3CCN(Cc4ccccc4-c4ccc(Cl)cc4)CC3)cc2)cc1[N+](=O)[O-] [ABT-737] | – | – | – | – | effect on mouse neutrophil viability (words) [1]: no impact on mouse neutrophil viability; also recorded: minimal effects on neutrophils
10 | – | – | – | – | – | – | – | – | CC(=O)Nc1nc(C)c(-c2ccc(Cl)c(S(=O)(=O)NCCO)c2)s1 [PIK-93] | – | – | – | – | IC50 (THP-1): 7.05 µM; IC50 (OCI-AML3): 1.8 µM; IC50 (KU-812): > 10 µM; IC50 (HL-60): 2.07 µM; IC50 (MOLT4): 2.95 µM; IC50 (U937): 1.29 µM; IC50 (EOL-1): 0.39 µM; IC50 (MV4;11): 1.23 µM; IC50 (K562): 9.98 µM; IC50 (JURKAT): 3.4 µM; IC50 (HEL.92.1.7): 8.14 µM; IC50 (MEG-01): > 10 µM
11 | – | – | – | – | – | – | – | – | CCc1c2c(nc3ccc(O)cc13)-c1cc3c(c(=O)n1C2)COC(=O)[C@]3(O)CC [SN-38] | – | – | – | – | effect of chemotherapeutics on neutrophil viability ([1]; GM-CSF-primed, dose-dependent, Figure 5D): potently decreased neutrophil viability
12 | – | – | – | – | – | – | – | – | Oc1ccc(-c2nc(-c3ccncc3)c(-c3ccc(F)cc3)[nH]2)cc1 [SB202190] | – | – | – | – | IC50 (THP-1; [3]): > 10 µM; IC50 (OCI-AML3; [4]): > 10 µM; IC50 (KU-812; [5]): 9.36 µM; IC50 (HL-60; [3]): > 10 µM; IC50 (MOLT4; [6]): > 10 µM; IC50 (U937; [7]): 6.6 µM; IC50 (EOL-1; [8]): 3.68 µM; IC50 (MV4;11; [3]): 7 µM; IC50 (K562; [3]): > 10 µM; IC50 (JURKAT; [3]): > 10 µM; IC50 (HEL.92.1.7; [3]): > 10 µM; IC50 (MEG-01; [3]): 6.83 µM

Source: paper PMC5601625, “Defining a therapeutic window for kinase inhibitors in leukemia to avoid neutropenia” (Oncotarget, 2017)
